Values quoted from earlier work, collected in patent US20130226549A1, “STRUCTURE-BASED FRAGMENT HOPPING FOR LEAD OPTIMIZATION AND IMPROVEMENT IN SYNTHETIC ACCESSIBILITY” (priority 2012, published 2013).
Read-outs that look alike come from different tables or passages of the source.

Biological target: T1, human 5-LOX (Homo sapiens, UniProt P09917)
T1 sequence (P09917 1-674): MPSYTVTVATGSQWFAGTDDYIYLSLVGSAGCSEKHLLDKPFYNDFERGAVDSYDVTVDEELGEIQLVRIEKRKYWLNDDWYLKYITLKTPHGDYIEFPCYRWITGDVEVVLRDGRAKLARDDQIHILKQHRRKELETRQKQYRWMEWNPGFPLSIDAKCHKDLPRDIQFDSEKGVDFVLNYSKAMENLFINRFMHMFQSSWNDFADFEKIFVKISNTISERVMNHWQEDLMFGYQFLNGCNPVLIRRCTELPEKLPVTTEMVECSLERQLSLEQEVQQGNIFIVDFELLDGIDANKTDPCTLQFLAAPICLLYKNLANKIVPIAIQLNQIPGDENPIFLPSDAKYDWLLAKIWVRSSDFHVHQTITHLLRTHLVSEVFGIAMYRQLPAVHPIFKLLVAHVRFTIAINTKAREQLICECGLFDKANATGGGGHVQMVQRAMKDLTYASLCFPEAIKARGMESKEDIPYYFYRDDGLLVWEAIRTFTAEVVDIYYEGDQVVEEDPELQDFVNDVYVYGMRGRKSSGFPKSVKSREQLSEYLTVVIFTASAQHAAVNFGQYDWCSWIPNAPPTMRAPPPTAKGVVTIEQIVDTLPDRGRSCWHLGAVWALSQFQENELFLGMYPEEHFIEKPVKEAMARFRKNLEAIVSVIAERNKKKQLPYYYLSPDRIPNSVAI
Settings: from the literature

[1] = 5-LOX, LeadOp+R example, read-out: Inhibition IC50

Row | Compound | IC50 (human 5-LOX, LeadOp example, read-out: IC50) [nM] | IC50 [1] [nM]
1 | O=c1cc(-c2ccc(F)cc2)c2ccc(CCc3ncc(C(O)(C(F)(F)F)C(F)(F)F)s3)cc2o1 [compound H] | 64 | –
2 | CCC(O)(c1cnc(Sc2ccc3c(-c4ccc(F)cc4)cc(=O)oc3c2)s1)C(F)(F)F (stereo not shown) [rB1] | – | 7 ± 2
3 | O=c1cc(-c2ccc(F)cc2)c2ccc(CCc3ncc(C(O)(C(F)(F)F)C(F)(F)F)s3)cc2o1 [rB3] | – | 64 ± 3
4 | CN(Cc1ccc2c(-c3ccc(F)cc3)cc(=O)oc2c1)c1ncc(C(O)(C(F)(F)F)C(F)(F)F)s1 [rB, reference compound] | – | 145
